Measured values reported in patent publication US10844062B2, “Pyridine derivative inhibiting RAF kinase and vascular endothelial growth factor receptor, method for preparing same, pharmaceutical composition containing same, and use thereof” (SAMJIN PHARMACEUTICAL CO., LTD., priority 2016, dated 2020).

Tested on: LS513 KRAS G12V (colon)
Assay: MTT assay
Assay type: cell-based
Conditions: Homo sapiens, LS-513, 72 h, Table 4; 3 days incubation; read-out: MTT assay IC50 KRAS mutant (Colon) LS513 KRAS G12V
Outline: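 Cells were seeded at line-dependent density and stabilised overnight at 37 °C, then exposed to compounds for 3 days at 37 °C. MTT was then added for 2 h and the formazan dissolved in DMSO.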

SMILES	IC50 [nM]
O=C(Nc1cc(Nc2ncccc2-c2ncnc3[nH]cnc23)ccc1F)c1ccc(C(F)(F)F)cc1C(F)(F)F [Example 128, N-5-[(3-(9H-purin-6-yl)pyridin-2-yl)amino]-2-fluorophenyl-2,4-bis(trifluoromethyl)benzamide]	1200
O=C(Nc1cc(Nc2ncccc2-c2ncnc3[nH]cnc23)ccc1F)c1ccc(C(F)(F)F)c(C(F)(F)F)c1 [Example 129, N-5-[(3-(9H-purin-6-yl)pyridin-2-yl)amino]-2-fluorophenyl-3,4-bis(trifluoromethyl)benzamide]	652
O=C(Nc1cc(Nc2ncccc2-c2ncnc3[nH]cnc23)ccc1F)c1cc(C(F)(F)F)ccc1C(F)(F)F [Example 130, N-5-[(3-(9H-purin-6-yl)pyridin-2-yl)amino]-2-fluorophenyl-2,5-bis(trifluoromethyl)benzamide]	1050
O=C(Nc1cc(Nc2ncccc2-c2ncnc3[nH]cnc23)ccc1F)c1cccc(OC(F)(F)F)c1 [Example 131, N-5-[(3-(9H-purin-6-yl)pyridin-2-yl)amino]-2-fluorophenyl-3-(trifluoromethoxy)benzamide]	102
COc1cc(OC)cc(C(=O)Nc2cc(Nc3ncccc3-c3ncnc4[nH]cnc34)ccc2F)c1 [Example 132, N-5-[(3-(9H-purin-6-yl)pyridin-2-yl)amino]-2-fluorophenyl-3,5-dimethoxybenzamide]	585
O=C(Nc1cc(Nc2ncccc2-c2ncnc3[nH]cnc23)ccc1F)c1ccc(C(F)(F)F)c(F)c1 [Example 133, N-5-[(3-(9H-purin-6-yl)pyridin-2-yl)amino]-2-fluorophenyl-3-fluoro-4-(trifluoromethyl)benzamide]	5600
COc1ccc(C(=O)Nc2cc(Nc3ncccc3-c3ncnc4[nH]cnc34)ccc2F)cc1C(F)(F)F [Example 134, N-5-[(3-(9H-purin-6-yl)pyridin-2-yl)amino]-2-fluorophenyl-4-methoxy-3-(trifluoromethyl)benzamide]	72
O=C(Nc1cc(Nc2ncccc2-c2ncnc3[nH]cnc23)ccc1F)c1cccc(C(F)(F)F)n1 [Example 136, N-5-[(3-(9H-purin-6-yl)pyridin-2-yl)amino]-2-fluorophenyl-6-(trifluoromethyl) picolinamide]	2300
Cc1cc(C(=O)Nc2cc(Nc3ncccc3-c3ncnc4[nH]cnc34)ccc2F)ccc1F [Example 137, N-5-[(3-(9H-purin-6-yl)pyridin-2-yl)amino]-2-fluorophenyl-4-fluoro-3-methylbenzamide]	1060
Cc1ccc(C(=O)Nc2cc(Nc3ncccc3-c3ncnc4[nH]cnc34)ccc2F)cc1C(F)(F)F [Example 138, N-5-[(3-(9H-purin-6-yl)pyridin-2-yl)amino]-2-fluorophenyl-4-methyl-3-(trifluoromethyl)benzamide]	403
COc1cc(OC(F)(F)F)cc(C(=O)Nc2cc(Nc3ncccc3-c3ncnc4[nH]cnc34)ccc2F)c1 [Example 140, N-5-[(3-(9H-purin-6-yl)pyridin-2-yl)amino]-2-fluorophenyl-3-methoxy-5-(trifluoromethoxy)benzamide]	294
O=C(Nc1cc(Nc2ncccc2-c2ncnc3[nH]cnc23)ccc1F)c1cccc(C2CC2)c1 [Example 141, N-5-[(3-(9H-purin-6-yl)pyridin-2-yl)amino]-2-fluorophenyl-3-cyclopropylbenzamide]	445
O=C(Nc1cc(Nc2ncccc2-c2ncnc3[nH]cnc23)ccc1F)c1cc(Cl)cc(OC(F)(F)F)c1 [Example 142, N-5-[(3-(9H-purin-6-yl)pyridin-2-yl)amino]-2-fluorophenyl-3-chloro-5-(trifluoromethoxy)benzamide]	128
O=C(Nc1cc(Nc2ncccc2-c2ncnc3[nH]cnc23)ccc1F)c1ccc(F)c(OC(F)(F)F)c1 [Example 143, N-5-[(3-(9H-purin-6-yl)pyridin-2-yl)amino]-2-fluorophenyl-4-fluoro-3-(trifluoromethoxy)benzamide]	559
